Measured values as given in patent US9758561B2 (priority 2014, dated 2017).
Like-named read-outs stand apart in the source and are kept apart here.

What was measured:
Format in all cases: cell-based
human GLP-1 receptor = biological target: T1, human GLP-1 receptor (Homo sapiens, UniProt P43220); assay: cAMP response of HEK-293 cells stably expressing human GLP-1 receptor (HTRF); details: read-out: EC50 hGLP-1R
T1 construct: expressed in transfected cells; host or cells: HEK-293
Experimental: (§1) For preparation, cells were split into T175 culture flasks and grown overnight to near confluency in medium (DMEM/10% FBS). Medium was then removed and cells washed with PBS lacking calcium and magnesium, followed by proteinase treatment with accutase (Sigma-Aldrich cat. no. A6964). Detached cells were washed and resuspended in assay buffer (1×HBSS; 20 mM HEPES, 0.1% BSA, 2 mM IBMX) and cellular density determined. They were then diluted to 400000 cells/ml and 25 μl-aliquots dispensed into the wells of 96-well plates. For measurement, 25 μl of test compound in assay buffer was added to the wells, followed by incubation for 30 minutes at room temperature. […] Potencies of peptidic compounds at the GLP-1, glucagon and GIP receptors were determined by exposing cells expressing human glucagon receptor (hGlucagon R), human GIP receptor (hGIP-R) or human GLP-1 receptor (hGLP-1R) to the listed compounds at increasing concentrations and measuring the formed cAMP as described in Methods.

human glucagon receptor = biological target: T2, human glucagon receptor (Homo sapiens, UniProt P47871); assay: cAMP response of HEK-293 cells stably expressing human glucagon receptor (HTRF); details: read-out: EC50 hGlucagon-R
T2 construct: expressed in transfected cells; host or cells: HEK-293
Experimental: as §1

human GIP receptor = biological target: T3, human GIP receptor (Homo sapiens, UniProt P48546); assay: cAMP response of HEK-293 cells stably expressing human GIP receptor (HTRF)
T3 construct: expressed in transfected cells; host or cells: HEK-293
T3 sequence (P48546 22-466): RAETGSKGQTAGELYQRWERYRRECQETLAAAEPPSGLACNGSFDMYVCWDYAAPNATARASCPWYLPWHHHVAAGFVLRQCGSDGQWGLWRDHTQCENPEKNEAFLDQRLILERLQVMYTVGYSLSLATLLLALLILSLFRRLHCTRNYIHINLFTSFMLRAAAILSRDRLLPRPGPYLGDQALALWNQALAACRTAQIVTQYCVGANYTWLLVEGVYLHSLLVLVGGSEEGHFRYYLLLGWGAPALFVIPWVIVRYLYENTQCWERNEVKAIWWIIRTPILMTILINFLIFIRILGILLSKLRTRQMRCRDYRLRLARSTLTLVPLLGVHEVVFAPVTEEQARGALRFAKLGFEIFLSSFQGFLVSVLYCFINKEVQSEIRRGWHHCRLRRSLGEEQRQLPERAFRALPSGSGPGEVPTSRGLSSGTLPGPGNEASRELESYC
Experimental: as §1

[1] = Table 7, comparison of residue in position 14

T2 sequence (P47871 26-477): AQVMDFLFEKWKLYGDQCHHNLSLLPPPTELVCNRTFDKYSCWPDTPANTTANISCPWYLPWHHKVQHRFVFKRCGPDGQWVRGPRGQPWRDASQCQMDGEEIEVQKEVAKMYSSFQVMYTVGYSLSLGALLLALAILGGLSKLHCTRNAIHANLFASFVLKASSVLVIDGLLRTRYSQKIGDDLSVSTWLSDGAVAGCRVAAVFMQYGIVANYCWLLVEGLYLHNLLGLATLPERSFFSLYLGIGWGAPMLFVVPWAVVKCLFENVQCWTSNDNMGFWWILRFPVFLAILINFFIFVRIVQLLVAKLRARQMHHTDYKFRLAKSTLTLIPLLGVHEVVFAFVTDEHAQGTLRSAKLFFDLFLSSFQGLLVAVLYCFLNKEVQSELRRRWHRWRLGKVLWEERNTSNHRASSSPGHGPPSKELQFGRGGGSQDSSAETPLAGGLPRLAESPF
T1 sequence (P43220 24-463): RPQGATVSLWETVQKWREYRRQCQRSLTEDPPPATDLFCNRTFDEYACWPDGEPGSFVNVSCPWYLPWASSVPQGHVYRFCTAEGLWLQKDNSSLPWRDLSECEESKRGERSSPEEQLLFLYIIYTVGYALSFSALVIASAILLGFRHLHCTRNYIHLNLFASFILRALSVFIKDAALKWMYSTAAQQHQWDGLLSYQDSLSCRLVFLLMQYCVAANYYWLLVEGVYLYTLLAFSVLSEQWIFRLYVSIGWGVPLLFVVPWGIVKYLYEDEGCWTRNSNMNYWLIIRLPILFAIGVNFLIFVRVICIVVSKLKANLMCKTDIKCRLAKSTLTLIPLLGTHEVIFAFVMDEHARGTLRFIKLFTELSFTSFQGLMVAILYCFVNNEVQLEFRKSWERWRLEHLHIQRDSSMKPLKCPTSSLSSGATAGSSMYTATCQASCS

| Structure (SMILES) | EC50 (human GLP-1 receptor; Table 6) | EC50 (human glucagon receptor; Table 6) | EC50 (human GIP receptor; Table 6, read-out: EC50 hGIP-R) | EC50 (human glucagon receptor; Table 8, comparison Aib vs. Lys in position 27) | EC50 (human GLP-1 receptor; [1]) | EC50 (human glucagon receptor; [1]) | EC50 (human GIP receptor; Table 7, comparison of residue in position 14, read-out: EC50 hGIP-1) |
| --- | --- | --- | --- | --- | --- | --- | --- |
| CCCCCCCCCCCCCCCC(=O)N[C@@H](CCC(=O)N[C@@H](CCC(=O)NCCCC[C@H](NC(=O)[C@H](CCC(N)=O)NC(=O)[C@H](CCCCN)NC(=O)[C@H](CO)NC(=O)[C@H](CC(C)C)NC(=O)[C@H](CC(=O)O)NC(=O)[C@H](CO)NC(=O)[C@@H](NC(=O)[C@H](Cc1ccccc1)NC(=O)[C@@H](NC(=O)CNC(=O)[C@H](CCC(N)=O)NC(=O)[C@H](CO)NC(=O)[C@@H](N)Cc1c[nH]cn1)[C@@H](C)O)[C@@H](C)O)C(=O)N[C@@H](CC(=O)O)C(=O)N[C@@H](CCC(=O)O)C(=O)N[C@@H](CCC(=O)O)C(=O)N[C@@H](C)C(=O)N[C@@H](C)C(=O)N[C@@H](CCCNC(=N)N)C(=O)N[C@@H](CC(C)C)C(=O)N[C@@H](Cc1ccccc1)C(=O)N[C@H](C(=O)N[C@@H](CCC(=O)O)C(=O)N[C@@H](Cc1c[nH]c2ccccc12)C(=O)N[C@@H](CC(C)C)C(=O)NC(C)(C)C(=O)N[C@@H](C)C(=O)NCC(=O)NCC(=O)N1CCC[C@H]1C(=O)N[C@@H](CO)C(=O)N[C@@H](CO)C(=O)NCC(=O)N[C@@H](C)C(=O)N1CCC[C@H]1C(=O)N1CCC[C@H]1C(=O)N1CCC[C@H]1C(=O)N[C@@H](CO)C(N)=O)[C@@H](C)CC)C(=O)O)C(=O)O [SEQ ID NO: 11, H-S-Q-G-T-F-T-S-D-L-S-K-Q-K(γE-γE-x53)-D-E-E-A-A-R-L-F-I-E-W-L-Aib-A-G-G-P-S-S-G-A-P-P-P-S-NH2] | 1.2 pM | 5.1 pM | 560 pM |  |  |  |  |
| CCCCCCCCCCCCCCCCCC(=O)N[C@@H](CCC(=O)NCCCC[C@H](NC(=O)[C@H](CCC(N)=O)NC(=O)[C@H](CCCCN)NC(=O)[C@H](CO)NC(=O)[C@H](CC(C)C)NC(=O)[C@H](CC(=O)O)NC(=O)[C@H](CO)NC(=O)[C@@H](NC(=O)[C@H](Cc1ccccc1)NC(=O)[C@@H](NC(=O)CNC(=O)[C@H](CCC(N)=O)NC(=O)[C@@H](CO)NC(=O)[C@@H](N)Cc1c[nH]cn1)[C@@H](C)O)[C@@H](C)O)C(=O)N[C@@H](CC(=O)O)C(=O)N[C@@H](CCC(=O)O)C(=O)N[C@@H](CCC(=O)O)C(=O)N[C@@H](C)C(=O)N[C@@H](C)C(=O)N[C@@H](CCCNC(=N)N)C(=O)N[C@@H](CC(C)C)C(=O)N[C@@H](Cc1ccccc1)C(=O)N[C@H](C(=O)N[C@@H](CCC(=O)O)C(=O)N[C@@H](Cc1c[nH]c2ccccc12)C(=O)N[C@@H](CC(C)C)C(=O)NC(C)(C)C(=O)N[C@@H](C)C(=O)NCC(=O)NCC(=O)N1CCC[C@H]1C(=O)N[C@@H](CO)C(=O)N[C@@H](CO)C(=O)NCC(=O)N[C@@H](C)C(=O)N1CCC[C@H]1C(=O)N1CCC[C@H]1C(=O)N1CCC[C@H]1C(=O)N[C@@H](CO)C(N)=O)[C@@H](C)CC)C(=O)O [SEQ ID NO: 13, H-dSer-Q-G-T-F-T-S-D-L-S-K-Q-K(γE-x70)-D-E-E-A-A-R-L-F-I-E-W-L-Aib-A-G-G-P-S-S-G-A-P-P-P-S-NH2] | 2.7 pM | 6.8 pM | 2540 pM |  |  |  |  |
| CCCCCCCCCCCCCCCC(=O)N[C@@H](CCC(=O)N[C@@H](CCC(=O)NCCCC[C@H](NC(=O)[C@H](CCC(N)=O)NC(=O)[C@H](CCCCN)NC(=O)[C@H](CO)NC(=O)[C@H](CC(C)C)NC(=O)[C@H](CC(=O)O)NC(=O)[C@H](CO)NC(=O)[C@@H](NC(=O)[C@H](Cc1ccccc1)NC(=O)[C@@H](NC(=O)CNC(=O)[C@H](CCC(N)=O)NC(=O)[C@@H](CO)NC(=O)[C@@H](N)Cc1c[nH]cn1)[C@@H](C)O)[C@@H](C)O)C(=O)N[C@@H](CCC(=O)O)C(=O)N[C@@H](CCC(=O)O)C(=O)N[C@@H](CCC(=O)O)C(=O)N[C@@H](C)C(=O)N[C@@H](C)C(=O)N[C@@H](CCCNC(=N)N)C(=O)N[C@@H](CC(C)C)C(=O)N[C@@H](Cc1ccccc1)C(=O)N[C@H](C(=O)N[C@@H](CCC(=O)O)C(=O)N[C@@H](Cc1c[nH]c2ccccc12)C(=O)N[C@@H](CC(C)C)C(=O)NC(C)(C)C(=O)N[C@@H](C)C(=O)NCC(=O)NCC(=O)N1CCC[C@H]1C(=O)N[C@@H](CO)C(=O)N[C@@H](CO)C(=O)NCC(=O)N[C@@H](C)C(=O)N1CCC[C@H]1C(=O)N1CCC[C@H]1C(=O)N1CCC[C@H]1C(=O)N[C@@H](CO)C(N)=O)[C@@H](C)CC)C(=O)O)C(=O)O [SEQ ID NO: 16, H-dSer-Q-G-T-F-T-S-D-L-S-K-Q-K(γE-γE-x53)-E-E-E-A-A-R-L-F-I-E-W-L-Aib-A-G-G-P-S-S-G-A-P-P-P-S-NH2] | 1.8 pM | 35.4 pM | 7780 pM |  |  |  |  |
| CCCCCCCCCCCCCCCC(=O)N[C@@H](CCC(=O)N[C@@H](CCC(=O)NCCCC[C@H](NC(=O)[C@H](CCC(N)=O)NC(=O)[C@H](CCCCN)NC(=O)[C@H](CO)NC(=O)[C@H](CC(C)C)NC(=O)[C@H](CC(=O)O)NC(=O)[C@H](CO)NC(=O)[C@@H](NC(=O)[C@H](Cc1ccccc1)NC(=O)[C@@H](NC(=O)CNC(=O)[C@H](Cc1c[nH]cn1)NC(=O)[C@@H](CO)NC(=O)[C@@H](N)Cc1c[nH]cn1)[C@@H](C)O)[C@@H](C)O)C(=O)N[C@@H](CCC(=O)O)C(=O)N[C@@H](CCC(=O)O)C(=O)N[C@@H](CCC(=O)O)C(=O)N[C@@H](C)C(=O)N[C@@H](C)C(=O)N[C@@H](CCCNC(=N)N)C(=O)N[C@@H](CC(C)C)C(=O)N[C@@H](Cc1ccccc1)C(=O)N[C@H](C(=O)N[C@@H](CCC(=O)O)C(=O)N[C@@H](Cc1c[nH]c2ccccc12)C(=O)N[C@@H](CC(C)C)C(=O)N[C@@H](CCCCN)C(=O)N[C@@H](C)C(=O)NCC(=O)NCC(=O)N1CCC[C@H]1C(=O)N[C@@H](CO)C(=O)N[C@@H](CO)C(=O)NCC(=O)N[C@@H](C)C(=O)N1CCC[C@H]1C(=O)N1CCC[C@H]1C(=O)N1CCC[C@H]1C(=O)N[C@@H](CO)C(N)=O)[C@@H](C)CC)C(=O)O)C(=O)O [SEQ ID NO: 30, H-dSer-H-G-T-F-T-S-D-L-S-K-Q-K(γE-γE-x53)-EEEAARLFIEWLKAGGPSSGAPPPS-NH2, reference compound] |  |  |  | 5.1 pM |  |  |  |
| CCCCCCCCCCCCCCCC(=O)N[C@@H](CCC(=O)N[C@@H](CCC(=O)NCCCC[C@H](NC(=O)[C@H](CCC(N)=O)NC(=O)[C@H](CCCCN)NC(=O)[C@H](CO)NC(=O)[C@H](CC(C)C)NC(=O)[C@H](CC(=O)O)NC(=O)[C@H](CO)NC(=O)[C@@H](NC(=O)[C@H](Cc1ccccc1)NC(=O)[C@@H](NC(=O)CNC(=O)[C@H](CCC(N)=O)NC(=O)[C@@H](CO)NC(=O)[C@@H](N)Cc1c[nH]cn1)[C@@H](C)O)[C@@H](C)O)C(=O)N[C@@H](CC(=O)O)C(=O)N[C@@H](CCC(=O)O)C(=O)N[C@@H](CCC(=O)O)C(=O)N[C@@H](C)C(=O)N[C@@H](C)C(=O)N[C@@H](CCCNC(=N)N)C(=O)N[C@@H](CC(C)C)C(=O)N[C@@H](Cc1ccccc1)C(=O)N[C@H](C(=O)N[C@@H](CCC(=O)O)C(=O)N[C@@H](Cc1c[nH]c2ccccc12)C(=O)N[C@@H](CC(C)C)C(=O)N[C@@H](CCCCN)C(=O)N[C@@H](C)C(=O)NCC(=O)NCC(=O)N1CCC[C@H]1C(=O)N[C@@H](CO)C(=O)N[C@@H](CO)C(=O)NCC(=O)N[C@@H](C)C(=O)N1CCC[C@H]1C(=O)N1CCC[C@H]1C(=O)N1CCC[C@H]1C(=O)N[C@@H](CO)C(N)=O)[C@@H](C)CC)C(=O)O)C(=O)O [SEQ ID NO: 32, H-dSer-Q-G-T-F-T-S-D-L-S-K-Q-K(γE-γE-x53)-DEEAARLFIEWLKAGGPSSGAPPPS-NH2, reference compound] |  |  |  |  | 1.9 pM | 5.5 pM | 565 pM |
